Laboratory results as given in US20220117958A1, “COMPOSITIONS AND METHODS FOR INHIBITING ACSS2” (THE TRUSTEES OF THE UNIVERSITY OF PENNSYLVANIA, priority 2018, published 2022).
In brackets after ≈: the same amount, converted by molar mass. Several values for one entry are separate records, joined by “and”; a condition that tells them apart may be missing. Identical values can stand only once. Entries after “also recorded” stand apart in the source; their conditions may differ. Marks after values point to notes of the source that are not given here.

Tests used:
[1] = In vivo PK, IV dose, plasma; design: species or system Rat (SD); conditions: for Plasma concentration, mean / Plasma concentration, individual animal: IV 1 mg/kg
Excerpt: (§1) Table 20 provides results of in vitro and in vivo pharmacokinetics performed for each of the represented compounds.
(§2) Tables 4 and 5 depict the summary of rat plasma sample concentrations after administration of ADG I-204. FIG. 6 provides a summary of rat plasma and brain concentrations.

[2] = Protein binding via Rapid Equilibrium Dialysis - plasma; format: in vitro ADME; conditions: Rat (SD) plasma, 2 μM
Excerpt: as §1

[3] = Microsomal stability assay (half-life), rat; format: in vitro ADME; conditions: Rat (SD) microsomes, read-out: Microsomal stability T1/2
Excerpt: as §1

[4] = Microsomal stability assay (half-life), human; format: in vitro ADME; conditions: Human microsomes, read-out: Microsomal stability T1/2
Excerpt: as §1

[5] = In vivo PK, IV dose, Terminal - brain (brain availability); design: species or system Rat (SD); conditions: for Brain concentration, mean / Brain concentration, individual animal: IV 1 mg/kg
Description: Table 3 and FIG. 5 depict the brain availability of ADG I-204, ADG I-205, ADG I-206, and ADG I-207 after IV administration of 1 mg/kg dose.

H3K9ac = assay: Western blot, differentiated CAD cell lysates, H3K9ac levels; format: cell-based; conditions: differentiated CAD cells, DMSO = 100.00%
Excerpt: as §1

[6] = In vivo PK, oral gavage, plasma; design: species or system Rat (SD); conditions: SD, rat, plasma, po, 5 mg/kg
Excerpt: as §1, §2

[7] = Microsomal stability assay (half-life), mouse; format: in vitro ADME; conditions: Mouse (CD1) microsomes, read-out: Microsomal stability T1/2
Excerpt: as §1

[8] = Turbidity-based aqueous solubility; format: physicochemical; conditions: aqueous solution (composition not given), kinetic from dmso stock, read-out: highest soluble concentration
Excerpt: as §1

[9] = tested on: primary hippocampal neurons; assay: RNA-seq, acetate-induced transcription in primary hippocampal neurons; format: cell-based, mouse
Description: Alcohol and acetate have pleiotropic effects on brain circuitry and metabolism. Utilizing isolated mouse primary hippocampal neurons, the transcriptional response to supraphysiological levels of acetate (cells were cultured for one week after isolation and subsequently treated with 5 mM acetate for 24 hours) that mimics exogenous acetate influx during alcohol intake was investigated. Further, to determine the specific role of ACSS2 in transcriptional responses to acetate, a highly specific small molecule inhibitor of ACSS2 (ACSS2i ADG-205: C20H18N4O2S2, FIG. 15A) was employed.

[10] = In vivo PK, oral gavage, plasma; design: species or system Rat (SD); conditions: Rat, PO 5 mg/kg, BQL limit 1.00 ng/mL, listed as ADG I-205, 5 mg/kg

## COCCNC(=O)Nc1ccc2nc(-c3cccs3)c(-c3cccs3)nc2c1 [ADG-205c, 1-(2,3-di(thiophen-2-yl)quinoxalin-6-yl)-3-(2-methoxyethyl)urea]
[1]; Rat (SD), 8 hr, terminal, listed as ADG I-205, 1 mg/kg
  Plasma concentration, mean: 29 ng/mL
[1]; Rat (SD), 24 hr, terminal, BQL limit 1.00 ng/mL (ADG I-205: 2.00 ng/mL), 1 mg/kg
  Plasma concentration, mean: 3 ng/mL
[1]; Rat, 0.0830 hr, terminal, third animal received only 70% of the test article, listed as ADG I-205, 1 mg/kg
  Plasma concentration, individual animal: 2310 ng/mL and 1700 ng/mL and 865*** ng/mL
[1]; Rat, 0.500 hr, not terminal (animals 4, 5 and 6), listed as ADG I-205, 1 mg/kg
  Plasma concentration, individual animal: 8520** ng/mL and 1380 ng/mL and 1470 ng/mL
[1]; Rat, 1.00 hr, terminal, listed as ADG I-205, 1 mg/kg
  Plasma concentration, individual animal: 895 ng/mL and 1190 ng/mL
[1]; Rat, 4.00 hr, terminal, BQL limit 1.00 ng/mL (ADG I-205: 2.00 ng/mL), 1 mg/kg
  Plasma concentration, individual animal: 187 ng/mL and 92.3 ng/mL
[1]; Rat, 8.00 hr, terminal, BQL limit 1.00 ng/mL (ADG I-205: 2.00 ng/mL), 1 mg/kg
  Plasma concentration, individual animal: 27.0 ng/mL and 31.9 ng/mL
[1]; Rat, 24.0 hr, terminal, BQL limit 1.00 ng/mL (ADG I-205: 2.00 ng/mL), 1 mg/kg
  Plasma concentration, individual animal: BQL
[1]; SD, rat, plasma, iv, 1 mg/kg, Rat (SD), 0.083 hr, terminal, read-out: Plasma concentration, mean
  concentration at 0.083 h: 1630 ng/mL
[1]; SD, rat, plasma, iv, 1 mg/kg, Rat (SD), 0.500 hr, not a terminal time point (animals 4, 5 and 6)
  concentration at 0.5 h: 3790 ng/mL
[1]; SD, rat, plasma, iv, 1 mg/kg, Rat (SD), 1 hr, terminal, read-out: Plasma concentration, mean
  concentration at 1 h: 1040 ng/mL
[1]; SD, rat, plasma, iv, 1 mg/kg, Rat (SD), 4 hr, terminal, read-out: Plasma concentration, mean
  concentration at 4 h: 140 ng/mL
[1]; SD, rat, plasma, iv, 1 mg/kg, Rat (SD), 8 hr, terminal, read-out: Plasma concentration, mean
  concentration at 8 h: 29.1 ng/mL
[1]; SD, rat, plasma, iv, 1 mg/kg, Rat (SD), 24 hr, terminal, BQL limit 1.00 ng/mL (ADG I-205: 2.00 ng/mL), read-out: Plasma concentration, mean
  concentration at 24 h: 2.63 ng/mL
[1]; SD, rat, plasma, iv, 1 mg/kg, Rat, 1.00 hr, terminal, read-out: Plasma concentration, individual animal
  concentration at 1 h: 1030 ng/mL
[1]; SD, rat, plasma, iv, 1 mg/kg, Rat, 8.00 hr, terminal, BQL limit 1.00 ng/mL (ADG I-205: 2.00 ng/mL), read-out: Plasma concentration, individual animal
  concentration at 8 h: 28.5 ng/mL
[1]; SD, rat, plasma, iv, 1 mg/kg, Rat, 24.0 hr, terminal, BQL limit 1.00 ng/mL (ADG I-205: 2.00 ng/mL), read-out: Plasma concentration, individual animal
  concentration at 24 h: 2.63 ng/mL
[2]
  Protein binding, plasma: % Protein free: 0.2915 % Protein free
[3]
  half-life at 2 μM: 11.6 min
[4]
  half-life at 2 μM: 27.8 min
[5]; Rat (SD), 4 hr, BQL limit 10.0 ng/g (204, 206), 20.0 ng/g (205, 207), listed as ADG I-205, 1 mg/kg
  Brain concentration, mean: 23 ng/g
[5]; Rat (SD), 8 hr, BQL limit 10.0 ng/g (204, 206), 20.0 ng/g (205, 207)
  Brain concentration, mean: BQL
[5]; Rat (SD), 24 hr, BQL limit 10.0 ng/g (204, 206), 20.0 ng/g (205, 207)
  Brain concentration, mean: BQL
[5]; Rat, 0.0830 hr, third animal received only 70% of the test article, listed as ADG I-205, 1 mg/kg
  Brain concentration, individual animal: 544 ng/g and 487 ng/g and 213*** ng/g
[5]; Rat, 1.00 hr, listed as ADG I-205, 1 mg/kg
  Brain concentration, individual animal: 102 ng/g and 171 ng/g
[5]; Rat, 4.00 hr, BQL limit 10.0 ng/g (204, 206), 20.0 ng/g (205, 207), listed as ADG I-205, 1 mg/kg
  Brain concentration, individual animal: BQL
[5]; Rat, 8.00 hr, BQL limit 10.0 ng/g (204, 206), 20.0 ng/g (205, 207)
  Brain concentration, individual animal: BQL
[5]; Rat, 24.0 hr, BQL limit 10.0 ng/g (204, 206), 20.0 ng/g (205, 207)
  Brain concentration, individual animal: BQL
[5]; SD, rat, brain, iv, 1 mg/kg, Rat (SD), 0.083 hr
  concentration at 0.083 h: 415 ng/g
[5]; SD, rat, brain, iv, 1 mg/kg, Rat (SD), 1 hr, read-out: Brain concentration, mean
  concentration at 1 h: 135 ng/g
[5]; SD, rat, brain, iv, 1 mg/kg, Rat (SD), 4 hr, BQL limit 10.0 ng/g (204, 206), 20.0 ng/g (205, 207), read-out: Brain concentration, mean
  concentration at 4 h: 23.4 ng/g
[5]; SD, rat, brain, iv, 1 mg/kg, Rat, 1.00 hr, read-out: Brain concentration, individual animal
  concentration at 1 h: 132 ng/g
[5]; SD, rat, brain, iv, 1 mg/kg, Rat, 4.00 hr, BQL limit 10.0 ng/g (204, 206), 20.0 ng/g (205, 207), read-out: Brain concentration, individual animal
  concentration at 4 h: 23.4 ng/g
H3K9ac; 1 uM
  H3K9ac levels normalized to H3 and DMSO control: 21.62%
H3K9ac; 5 uM
  H3K9ac levels normalized to H3 and DMSO control: 17.18%
H3K9ac; 10 uM
  H3K9ac levels normalized to H3 and DMSO control: 14.26%
H3K9ac; 20 uM
  H3K9ac levels normalized to H3 and DMSO control: 21.52%
H3K9ac; 50 uM
  H3K9ac levels normalized to H3 and DMSO control: 29.67%
H3K9ac; 100 uM
  H3K9ac levels normalized to H3 and DMSO control: 16.42%
[6]; Rat (SD), 0.25 hr, BQL = below quantitation limit (1.00 ng/mL), read-out: Plasma concentration, mean
  concentration at 0.25 h: 83.5 ng/mL
[6]; Rat (SD), 0.5 hr, BQL = below quantitation limit (1.00 ng/mL), read-out: Plasma concentration, mean
  concentration at 0.5 h: 371 ng/mL
[6]; Rat (SD), 1 hr, BQL = below quantitation limit (1.00 ng/mL), read-out: Plasma concentration, mean
  concentration at 1 h: 641 ng/mL
[6]; Rat (SD), 4 hr, BQL = below quantitation limit (1.00 ng/mL)
  concentration at 4 h: 693 ng/mL
[6]; Rat (SD), 8 hr, BQL = below quantitation limit (1.00 ng/mL), read-out: Plasma concentration, mean
  concentration at 8 h: 354 ng/mL
[6]; Rat (SD), 24 hr, BQL = below quantitation limit (1.00 ng/mL), read-out: Plasma concentration, mean
  concentration at 24 h: 3.06 ng/mL
[6]; Rat, 1.00 hr, BQL limit 1.00 ng/mL, read-out: Plasma concentration, individual animal
  concentration at 1 h: 466 ng/mL
[7]
  half-life at 2 μM: 4.72 min
[8]
  solubility: 5 µM (≈ 2.05 µg/mL)
[9]; 5 mM acetate, 24 hours, RNA-seq
  Number of the 3613 acetate-induced genes that fail to be upregulated in the presence of inhibitor: 2107 genes
[9]; acetate, ACSS2 inhibited
  Slc17a7 induction upon acetate treatment: induction was diminished
[9]; hippocampal neurons ex vivo, acetate
  Acetate induction of ACSS2 target genes with alcohol-induced H3K9ac: blocks this gene induction
[9]; hippocampal neurons ex vivo, acetate, listed as ACSS2i
  Acetate induction of ACSS2 target genes with alcohol-induced H3K27ac: failed to be induced; also recorded: blocks this gene induction
[9]; no acetate
  Regulation of acetate-induced genes by inhibitor in the absence of acetate: not regulated
[10]; 0.250 hr
  Plasma concentration, individual animal: 30.4 ng/mL and 73.0 ng/mL and 147 ng/mL
[10]; 0.500 hr
  Plasma concentration, individual animal: 145 ng/mL and 298 ng/mL and 669 ng/mL
[10]; 1.00 hr
  Plasma concentration, individual animal: 550 ng/mL and 906 ng/mL
[10]; 4.00 hr
  Plasma concentration, individual animal: 710 ng/mL and 430 ng/mL and 938 ng/mL
[10]; 8.00 hr
  Plasma concentration, individual animal: 531 ng/mL and 235 ng/mL and 297 ng/mL
[10]; 24.0 hr
  Plasma concentration, individual animal: 3.51 ng/mL and 1.48 ng/mL and 4.19 ng/mL
